These are literature values, as cited in patent publication US11179350B2, “Nutraceutical compositions comprising C60 and Cox-2 inhibitor” (priority 2018, dated 2021).

Data set [1] has as its system tumor growth and metastasis. The note with it: Prylutska et al. 2011.
For a further data set, the system named is rats. As to conditions: repeated oral administration (Baati et al. 2012).
The test system of the next data set is mice. As to conditions: mice (Quick et al. 2008).
For data set [2] the following is noted: more potent than Vitamin C.

For the molecule `c12c3c4c5c1c1c6c7c2c2c8c3c3c9c4c4c%10c5c5c1c1c6c6c%11c7c2c2c7c8c3c3c8c9c4c4c9c%10c5c5c1c1c6c6c%11c2c2c7c3c3c8c4c4c9c5c1c1c6c2c3c41` [C60, Buckminsterfullerene], in data set [1], the “tumor growth and metastasis” value was “inhibit tumor growth and metastasis”. The prolongation of life result in the data set with rats and in the data set on mice was “prolong life” each time. Besides, the “antioxidant potency relative to Vitamin C” value in data set [2] is listed as 172 times.
